Laboratory results published in publication PMC9965539, “Adverse Toxic Effects of Tyrosine Kinase Inhibitors on Non-Target Zebrafish Liver (ZFL) Cells” (International Journal of Molecular Sciences, 2023).
pIC50: −log10 of the molar value. Read-outs that look alike come from different tables or passages of the source.

Columns and labels:
[1] = tested on: certain target cancer cells; set-up: method as in ref 56, 57 (DAS), 58, 59 (REG); conditions: in vitro; 57 (DAS), 58, 59 (REG); cited from earlier work
[2] = tested on: zebrafish liver cells (ZFL); assay: Cell cycle analysis with flow cytometry; format: cell-based; conditions: 72 h; for effect on cell cycle progression: concentration-dependent, parallel decrease in S-phase fraction
Protocol: ZFL cells were seeded onto T25 culture plates at a density of 450,000 cells for 24 h. […] The positive control was etoposide (0.17 μM), which is known to arrest cells in the G2/M phase of the cell cycle. After 72 h, cells were trypsinized (0.25% trypsin-EDTA) and washed with 1x PBS before fixation in 4% paraformaldehyde (PFA). For flow cytometric analysis, fixed cells were washed in cold 1x PBS and stained with Hoechst 33258 dye (diluted in 0.1% Triton X-100 1:500) as described by Stampar et al.. Flow cytometric measurements were performed using a MACSQuant Analyzer 10 and the experiment was repeated three times independently. Each time, 20,000 single cells were recorded per experimental point. The data obtained were analyzed using FlowJo V10 software (Becton Dickinson, Franklin Lakes, NJ, USA). Statistical analysis for cell cycle was performed by the two-way ANOVA with Fisher’s LSD test using GraphPad Prism V6 (GraphPad Software, La Jolla, CA, USA). * p < 0.05, ** (p < 0.01), *** (p < 0.001) were considered statistically significant.

[3] = tested on: targeted and non-targeted human chronic myeloid leukemia cancer cells; set-up: method as in doi:10.1182/blood.V124.21.5510.5510; conditions: therapeutic concentrations (NIL 48 h); cited from earlier work
mammalian cells = tested on: mammalian cells; set-up: method as in EMEA documents (69); conditions: ref EMEA documents (69); cited from earlier work
[4] = tested on: zebrafish liver cells (ZFL); assay: Propidium iodide live/dead staining by flow cytometry; format: cell-based
Protocol: Benzo[a]pyrene (50 μM), an indirect-acting genotoxic agent which requires metabolic activation for its genotoxic effects, and etoposide (0.17 μM), a direct-acting genotoxic agent, were selected as positive controls. After 72 h, floating and adherent cells were collected, resuspended in ice-cold 1x PBS, and immediately analyzed. Propidium iodide (PI) at a final concentration of 1 μg/mL was added to the cells 5 min before the start of measurements using the MACSQuant Analyzer 10 flow cytometer (Miltenyi Biotech, Bergisch Gladbach, Germany). MASCQuantifiy software (Miltenyi Biotech, Bergisch Gladbach, Germany) was used to quantify PI negative and positive cells. The experiments were repeated three times independently. Statistical significance between the treated groups and control was determined by one-way ANOVA with post hoc multiple comparison Dunett’s test using GraphPad Prism V6 (GraphPad Software, La Jolla, CA, USA). * p < 0.05 was considered statistically significant.

primary rat hepatocytes = conditions: cited from earlier work
[5] = tested on: zebrafish liver cells (ZFL); assay: MTS assay, viability of ZFL cells; format: cell-based; conditions: 24, 48, 72 h; dose- and time-dependent; ERL and NIL up to their maximum solubility
Protocol: (§1) The viability of ZFL cells after 24, 48, and 72 h of exposure to TKIs was determined using the tetrazolium-based (MTS) assay (Cell Titer 96 AQueous Non-Radioactive Cell Proliferation Assay; Promega, Madison, WI, USA) as previously described by Novak et al.. Cells were seeded in 96-well microtiter plates (Corning Costar Corporation, New York, NY, USA) at a density of 7000 cells/well. […] Three independent experiments were performed, each with five replicates per treatment point. The statistical significance between the treated groups and the solvent control was determined by Student’s t-test using GraphPad Prism V6 (GraphPad Software, La Jolla, CA, USA). *** (p < 0.001)was considered statistically significant.

[6] = MTS assay, viability of ZFL cells; format: cell-based, zebrafish; conditions: zebrafish, ZFL cells (zebrafish liver cell line), ZFL cells, read-out: IC50 for TKIs Cytotoxicity (95% Confidence Interval); for IC50 at 24 h: 24 h exposure; for IC50 at 48 h: 48 h exposure; for IC50 at 72 h: 72 h exposure
Protocol: as §1

rats = tested on: rats; set-up: method as in EMEA documents (69); conditions: ref EMEA documents (69); cited from earlier work
[7] = tested on: zebrafish liver cells (ZFL); assay: Micronucleus detection by flow cytometry; format: cell-based; conditions: 72 h
Protocol: ZFL cells were seeded onto 24-well culture plates (Nunclon) at a density of 35,000 cells per well for 24 h. […] Etoposide (0.17 μM and 0.68 μM) was used as a positive control. After 72 h, cells were placed on ice for 20 min, and subsequently a 0.05 mg/mL EMA solution was added to each well. The cells were placed on ice for 30 min and exposed to light for photoactivation of the EMA fluorochrome. Afterwards, cells were washed and resuspended in lysis solution (0.584 mg/mL NaCl, 1 mg/mL sodium citrate, and 0.3 μL/mL Triton X-100) containing 0.2 μM SYTOX Green and 0.25 mg/mL RNAse A, and incubated for 1 h in the dark at 37 °C. After incubation, lysis solution (85.6 mg/mL sucrose and 15 mg/mL citric acid) containing 0.2 μM SYTOX Green was added to the wells of the plate and incubated for a further 30 min at room temperature in the dark. Cells were analyzed on the same day using MACSQuant Analyzer 10 flow cytometer. MASCQuantify Software 2.11. was used to analyze each sample, and the percentage of micronuclei was determined after the acquisition of a total of 20,000 gated nuclei events, excluding EMA-positive events. One-way ANOVA with post hoc multiple comparison Dunett’s test using GraphPad Prism V6 (GraphPad Software, Carlsbad, CA, USA) was carried out. * p < 0.05 and *** p < 0.0001 were considered statistically significant.

HepG2 cells [8] = conditions: 20 μM; ref Mingard et al. 46; cited from earlier work
[9] = tested on: primary human hepatocytes; conditions: cited from earlier work
Huh-7 cells [10] = conditions: 72 h; cited from earlier work
Huh-7 cells [11] = tested on: Huh-7 cells; set-up: method as in PMID 32397371; conditions: 48 h exposure; cited from earlier work
[12] = tested on: liver of male albino rats; set-up: method as in ref 64 = [64]; 64. Diab A.A.A. El-aziz S.A.A. Hendawy A.A. Hamza R.Z. Salim D.M.M. Protective Effect of Antioxidants Combinations (Vit A, C, E and Selenium) (Antox Drug) against Oxidative Stress and Cellular Toxicit; conditions: 10 mg/kg body weight daily for two weeks; cited from earlier work
[13] = tested on: human hepatocellular carcinoma SMMC-7721 cells; conditions: approximately 5 μM, 24 h; cited from earlier work
mice = tested on: mice; set-up: method as in EMEA documents (69); conditions: ref EMEA documents (69); cited from earlier work
Swiss albino mice = conditions: cited from earlier work
[14] = tested on: human hepatocellular carcinoma SK-HEP-1 cells; conditions: approximately 10 μM, 24 h; cited from earlier work
[15] = tested on: Huh7, A549 and MCF-7 cells; conditions: cited from earlier work
HepG2 cells [16] = tested on: HepG2 cells; set-up: method as in PMID 32397371; conditions: 48 h exposure; cited from earlier work
[17] = tested on: human colon adenocarcinoma HT-29 cell line; conditions: 16 uM for 12 h; cited from earlier work
HepG2 cells [18] = tested on: HepG2 cells; set-up: method as in PMID 32913557; conditions: 1 µM for 24 h; cited from earlier work

Cc1nc(Nc2ncc(C(=O)Nc3c(C)cccc3Cl)s2)cc(N2CCN(CCO)CC2)n1 [DAS, dasatinib]
DNA damage assessed by comet assay [1]: induce DNA damage | concentration that induced G0/G1 cell cycle arrest with decrease in number of cells in S phase [2]: 0.03 µM | effect on cell cycle progression [2]: arrest of the cell cycle in the G0/G1 phase | centromere positive micronuclei [3]: increased the number of centromere positive micronuclei | structural chromosomal aberrations (mammalian cells): increased the number of structural chromosomal aberrations | FSC/SSC dot plot shift, apoptosis ([4]; all tested DAS concentrations (0.015-0.06 μM), 72 h): induction of apoptosis | exposed cells degraded ([4]; lowest DAS concentration (0.015 μM), 72 h): more than 50% | pIC50 (primary rat hepatocytes; 48 h exposure, read-out: 50% growth inhibition): 4.68 | cytotoxicity (primary rat hepatocytes): cytotoxic only to primary rat hepatocytes | viability of the ZFL cells [5]: reduced | IC50 at 24 h [6]: 0.64 µM | IC50 at 48 h [6]: 0.24 µM | IC50 at 72 h [6]: 0.16 µM | in vivo micronucleus assay (rats): negative | MNi in representative dot plot ([7]; 0.015 μM): increased amount of MNi | MNi in representative dot plot ([7]; 0.03 μM): increased amount of MNi | MNi in representative dot plot ([7]; 0.06 μM): low amount of nuclei and MNi | apoptosis (HepG2 cells [8]): induced apoptosis | cytotoxicity [9]: not to primary human hepatocytes

CNC(=O)c1cc(Oc2ccc(NC(=O)Nc3ccc(Cl)c(C(F)(F)F)c3)cc2)ccn1 [SOR, sorafenib]
concentration with cell cycle arrest (Huh-7 cells [10]): 3.7 µM | concentration that induced G0/G1 cell cycle arrest with decrease in number of cells in S phase [2]: 1 µM | effect on cell cycle progression [2]: arrest of the cell cycle in the G0/G1 phase | structural chromosomal aberrations (mammalian cells): increased the number of structural chromosomal aberrations | percentage of PI negative cells ([4]; 72 h exposure, low concentrations): did not significantly decrease | concentration with significant change in cell viability (Huh-7 cells [11]): 2 µM | pIC50 (primary rat hepatocytes; 24 h, read-out: IC50): 5.26 | DNA damage in liver (comet assay in vivo) [12]: induced DNA damage | viability of the ZFL cells [5]: reduced | IC50 at 24 h [6]: 6.93 µM | IC50 at 48 h [6]: 3.36 µM | IC50 at 72 h [6]: 2.71 µM | MNi formation [13]: did not increase MNi formation | in vivo micronucleus assay (mice): negative | increase in MNi formation (Swiss albino mice): approximately 10 fold | MNi formation [14]: did not increase MNi formation | DNA damage in vitro [15]: induced DNA damage | concentration with significant change in cell viability (HepG2 cells [16]): 5 µM | DNA double strand breaks (neutral comet assay) [17]: did not significantly increase DNA double strand breaks | MNi frequency ([7]; non-cytotoxic concentrations): did not significantly increase | DNA strand breaks (alkaline comet assay) (HepG2 cells [18]): did not significantly increase | pIC50 ([9]; 24 h): 5.00
